Laboratory results from US9862713B2, “Substituted bicyclic heteroaryl compounds as RXR agonists” (CONNEXIOS LIFE SCIENCES PVT. LTD., priority 2014, dated 2018).

Experiments:
[1] = system: MCF7 breast cancer cell line; test: MCF7 breast cancer cell line: growth, BrdU incorporation, ROS, DNA fragmentation; assay type: cell-based
[2] = system: MIA PaCa-2 cells; test: Caspase-3 activity (Ac-DEVD-R110 cleavage) in MIA PaCa-2 cells; assay type: cell-based
Protocol: Caspase-3 activity was measured using its ability to cleave its substrate (Ac-DEVD-R110). Increased Caspase-3 activity would lead to higher release of fluorescent R110 which was measured at 485 nm excitation and 530 nm emission. Activity of caspase-3 (as nano-moles of R110 released) was normalized to total cellular protein. […] Cell death was measured by increased levels of DNA fragments as per manufacturer's protocol (Roche) and was normalized to total cellular DNA. Data are represented as % of control.

[3] = system: astrocytes; test: Astrocytes treated with PMA and LPS: ROS levels and inflammation markers; assay type: cell-based; conditions: 48 h
Protocol: Furthermore, cultured astrocytes were treated with phorbol-12-myristate-13-acetate (PMA) and Lipopolysaccharides (LPS) alone or with test molecule for 48 h to measure ROS levels. To evaluate the effect on inflammation markers, astrocytes were treated with PMA and test molecule for 48 h.

[4] = system: male ZDF rats; test: Effect of RXR agonist on male ZDF rats; assay type: in vivo; conditions: 10 mg/kg, BID, po
Protocol: Five week old male ZDF rats from Charles River & age matched control rats were housed under temperature 22±3° C., relative humidity 50-70%, 12 hour light and 12 hour dark cycle with artificial fluorescent tubes. The animals were housed in a group of 3 in standard polypropylene cages with stainless steel top grill having facilities for pelleted food and drinking water in bottle. The animals were fed with normal chow diet (Provomi), Bisleri, commercially available mineral drinking water was provided ad libitum. The lean control and the male […] rats were randomized to either vehicle or drug (Compound 40, 10 mg/kg, BID, po) treatment groups by body weight, fed glucose and glucose. The treatment was continued for 8 weeks. Body weight, fasting and fed glucose and fast triglycerides (tail snip) were monitored weekly. At the end of week 8 of the treatment, glucose and insulin HbAlc levels were followed at different time intervals. Blood samples collected from tail nipping method HbAlc levels by DCA vantage (SIEMENS).
Measurement of Nerve conduction velocity: Nerve conduction velocity was measured using Electronic stimulator connected to AD Power Lab 8/30, AD instruments. Briefly animals were anaesthetized and three different electrodes (+ve, −ve and neutral) were connected from Bio amp to animal. +ve electrode was placed on front side of fourth finger on hind paw, −ve electrode was placed just above +ve electrode at a distance of 10 mm and neutral electrode was placed on abdomen region. Voltage at a rate of 5 mv with pulse width of 0.001 sec was provided on two different regions at a distance of 1 cm on sciatic nerve. Nerve conduction was recorded using Lab chart software in scope view panel. Latencies at two different points were measured by taking the mouse cursor at the beginning of peaks. […] Measurement of Hemodynamic Parameters by Using Millar MPVS System:
At the end of 22 weeks of treatment period animal were subjected to hemodynamic measurement using Millar MPVS system, briefly animal was anesthetized using urethane and all surgical procedure was done on thermal plate, both jugular vein and carotid artery was cannulated in which jugular vein was used for saline calibration whereas rat millar Cather was introduced into left ventricle through carotid artery was be used for recording the Pressure volume loop. Blood was withdrawn from the tail vein puncture by pricking with needle into pre-filled EDTA tubes, mix and placed on ice immediately, centrifuge at 10000 rpm for 10 minutes using cold centrifuge. The plasma separated was subjected for estimation of ANP, BNP, Osteprotegerin Using USCN kit and Serum urea and BUN using Robonik kit.

[5] = system: male Syrian Hamsters; test: High cholesterol diet induced hyperlipidaemia in hamsters; assay type: in vivo; conditions: 10 mg/kg b.wt, 8-12 weeks
Protocol: Eight to ten week old male Syrian Hamsters were housed in polypropylene cages provided with sterile paddy husk as bedding material. The animals were maintained at temperature 22±3° C., relative humidity 50-70%, 15-18 air cycle changes with 12 h dark and light cycle. The animals were provided with rodent feed (ad libitum) supplied by harlan laboratories to normal control animals and treatment groups were fed with High Cholesterol diet, prepared in-house by mixing 11.5% coconut oil, 11.5% corn oil, 0.5% cholesterol, and 0.25% deoxycholate in chow diet. Bisleri water (ad libitum) was provided. The animals were randomized based on body weight and divided into control and treatment groups. Compound 40 was administered, at a dose of 10 mg/kg b.wt, for a period of 8-12 weeks to the treatment group. Daily feed consumption, weekly body weight, total cholesterol and triglyceride levels were estimated.

Q: Which results are given for `CC1(C)CCC(C)(C)c2sc(N(CC3CC3)c3ccc(C(=O)O)cn3)nc21` [Compound 40, 6-[(Cyclopropylmethyl) (4,4,7,7-tetramethyl-4,5,6,7-tetrahydro-1,3-benzothiazol-2-yl)amino]pyridine-3-carboxylic acid]?
A: BrdU incorporation ([1]; MCF7): significantly reduced; apoptosis (DNA fragmentation) ([1]; MCF7): increased levels of apoptosis; cellular stress (ROS levels) ([1]; MCF7): significant increase in cellular stress; cell growth ([1]; MCF7, 3 uM): reduced cell growth; Caspase-3 activity [2]: significantly increased; oxidative stress (ROS levels) ([3]; PMA and LPS): reduce both oxidative stress; inflammation (IL6 secretion and expression, expression of IL1b, COX2 and MCP1) ([3]; PMA): reduce inflammation; CRP levels [4]: decreasing CRP levels; HbAlc levels [4]: very significant improvement; activity of SDH (glucose oxidation in muscle) [4]: significantly increased the activity of SDH; fasting TG levels [4]: significantly reduces fasting TG levels; fasting glucose [4]: significant control of Fasting glucose; glucose disposal [4]: improves glucose disposal; hyperinsulinemia (insulin levels) [4]: significantly reduced hyperinsulinemia; levels of biomarkers of Cardio vascular risk [4]: improvement in levels of biomarkers of Cardio vascular risk; prandial hyperglycemia (fed glucose) [4]: both an early onset and sustained control of prandial hyperglycemia; Cardiac function ([4]; Millar MPVS hemodynamic measurement): Substantial improvement; BUN levels ([4]; end of 22 weeks): Substantial decrease; Serum Creatinine levels ([4]; end of 22 weeks): Substantial decrease; hypertriglyceridemia ([4]; fasting TG during treatment and there after): does not cause hypertriglyceridemia; Nerve conduction velocity (NCV) ([4]; sciatic nerve): Significant improvement; LDL-c [5]: significant reduction; Non-HDL cholesterol [5]: significant reduction; total cholesterol [5]: significant reduction
